Test results from ChEMBL document CHEMBL1201862, “PubChem BioAssay data set” (2004).
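1) Cells in 96-well plates. 2) Compound, 48 h, 5 concentrations. 3) Linear interpolation between surrounding doses. 4) Unreached endpoint = highest concentration. GI50 marks 50% less growth.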 The source made the active and inactive calls. No stated cut-off is given here; in the data, active = GI50 up to about 1.1 µM and inactive = higher.

Assays:
Assay in all cases: growth of human tumour cells (NCI), 48 h
[1] = tested on: HOP-92
[2] = tested on: OVCAR-8
[3] = tested on: SW-620
[4] = tested on: LOX IMVI
[5] = tested on: SNB-19
[6] = tested on: M14
[7] = tested on: SF-268
[8] = tested on: HCT-116
[9] = tested on: OVCAR-4
[10] = tested on: COLO 205
[11] = tested on: U-251
[12] = tested on: ACHN
[13] = tested on: HCC 2998
[14] = tested on: K562
[15] = tested on: SK-MEL-5
[16] = tested on: HT-29
[17] = tested on: NCI/ADR-RES
[18] = tested on: UO-31
[19] = tested on: SK-MEL-28
[20] = tested on: SR

Compound	GI50 [1]	GI50 [2]	GI50 [3]	GI50 [4]	GI50 [5]	GI50 [6]	GI50 [7]	GI50 [8]	GI50 [9]	GI50 [10]	GI50 [11]	GI50 [12]	GI50 [13]	GI50 [14]	GI50 [15]	GI50 [16]	GI50 [17]	GI50 [18]	GI50 [19]	GI50 [20]
CCN(CC)CCn1c(=O)c2c(C)c3oc4ccccc4oc3c(C)c2c1=O	> 100 µM (inactive)	> 100 µM (inactive)	> 100 µM (inactive)	> 100 µM (inactive)	> 100 µM (inactive)	> 100 µM (inactive)	> 100 µM (inactive)	> 100 µM (inactive)	> 100 µM (inactive)	> 100 µM (inactive)	> 100 µM (inactive)	> 100 µM (inactive)	> 100 µM (inactive)	> 100 µM (inactive)	> 100 µM (inactive)	> 100 µM (inactive)	> 100 µM (inactive)			
COC1=CC(=O)c2c(c(O)c3oc4cc(OC)cc(C)c4c(=O)c3c2O)C1=O [BIKAVERIN]	0.578 µM (active)	0.178 µM (active)	1.6 µM (inactive)	0.535 µM (active)	2.28 µM (inactive)		4.46 µM (inactive)	1.02 µM (active)	1.27 µM (inactive)	20.3 µM (inactive)	0.879 µM (active)		9.91 µM (inactive)	0.719 µM (active)	1 µM (active)	19.4 µM (inactive)	0.881 µM (active)	1.36 µM (inactive)	2.03 µM (inactive)	
O=c1sc2ccccc2n1CC1CS1 (centres undefined)	> 100 µM (inactive)	> 100 µM (inactive)	> 100 µM (inactive)	> 100 µM (inactive)	> 100 µM (inactive)	> 100 µM (inactive)	> 100 µM (inactive)	> 100 µM (inactive)	> 100 µM (inactive)	> 100 µM (inactive)		> 100 µM (inactive)	> 100 µM (inactive)	> 100 µM (inactive)		> 100 µM (inactive)		> 100 µM (inactive)	> 100 µM (inactive)	> 100 µM (inactive)
C/C(CCOC1CCCCO1)=C(\C)[Si](C)(C)C (centres undefined)	> 100 µM (inactive)	> 100 µM (inactive)	> 100 µM (inactive)	> 100 µM (inactive)	> 100 µM (inactive)	> 100 µM (inactive)	> 100 µM (inactive)	> 100 µM (inactive)		> 100 µM (inactive)	> 100 µM (inactive)	> 100 µM (inactive)	> 100 µM (inactive)	> 100 µM (inactive)	> 100 µM (inactive)	> 100 µM (inactive)		> 100 µM (inactive)	> 100 µM (inactive)	> 100 µM (inactive)
CN(C)CCNc1ccc(NCC[N+](C)(C)Cc2ccc([N+](=O)[O-])cc2)c2c1C(=O)c1ccccc1C2=O	> 25 µM (inactive)	> 25 µM (inactive)	13.3 µM (inactive)	15 µM (inactive)		21.6 µM (inactive)	11.9 µM (inactive)	10.9 µM (inactive)		7.28 µM (inactive)	19.4 µM (inactive)	12.1 µM (inactive)			12.2 µM (inactive)	16.6 µM (inactive)	> 25 µM (inactive)	9.51 µM (inactive)	> 25 µM (inactive)	6.15 µM (inactive)
Nc1ccn(C2OC(COP(=O)(O)Oc3ccccc3)C(O)C2O)c(=O)n1 (centres undefined)	18.6 µM (inactive)	7.67 µM (inactive)	> 100 µM (inactive)	6.61 µM (inactive)	> 59.4 µM (inactive)		20 µM (inactive)	5.57 µM (inactive)	> 100 µM (inactive)	61.9 µM (inactive)	44.6 µM (inactive)		> 100 µM (inactive)	> 70.6 µM (inactive)	> 42.9 µM (inactive)	> 100 µM (inactive)	16.7 µM (inactive)	30.6 µM (inactive)	9.38 µM (inactive)	
C=CCCCC12CCCc3cccc(c31)NC2=O (centres undefined)	13.8 µM (inactive)		20 µM (inactive)	21.6 µM (inactive)	23.4 µM (inactive)	14.4 µM (inactive)		13.6 µM (inactive)	18.9 µM (inactive)	20.2 µM (inactive)	22 µM (inactive)	28.1 µM (inactive)	16.4 µM (inactive)	22 µM (inactive)	16.3 µM (inactive)			30.4 µM (inactive)		20.8 µM (inactive)
O=c1[nH]c(=S)[nH]c2c(C3OC(CO)C(O)C3O)nsc12 (centres undefined)	> 100 µM (inactive)	> 100 µM (inactive)	> 100 µM (inactive)	> 100 µM (inactive)		> 100 µM (inactive)	> 100 µM (inactive)	> 100 µM (inactive)	> 100 µM (inactive)	> 100 µM (inactive)	> 100 µM (inactive)		> 100 µM (inactive)	> 100 µM (inactive)	> 100 µM (inactive)	> 100 µM (inactive)	> 100 µM (inactive)		> 100 µM (inactive)	> 10 µM (inactive)
